# Laboratory results reported in patent US20100267561A1, “HERBICIDAL PYRIDAZINONE DERIVATIVES” (priority 2007, published 2010).
# Columns and labels:
# Experiment in all cases: Test B pre-/postemergence plant response
# Assay type in all cases: in vivo
# [1] = system: giant foxtail (Setaria faberii); settings: for Foxtail, Giant plant response rating: 8 g ai/ha
# In short: (§1)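 Preemergence and postemergence (plants 2-18 cm, 1- to 4-leaf stage) applications used test chemicals in a non-phytotoxic solvent with surfactant. Plants were held in a greenhouse 13 to 15 days, then rated visually against controls on a 0-100 scale (0 no effect, 100 complete control).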
# [2] = system: green foxtail (Setaria viridis); settings: for Foxtail, Green plant response rating: 8 g ai/ha
# In short: as §1
# [3] = system: soybean (Glycine max); settings: for Soybean plant response rating: 8 g ai/ha
# In short: as §1
# [4] = system: Russian thistle (Salsola iberica); settings: Preemergence
# In short: as §1
# [5] = system: wheat (Triticum aestivum); settings: for Wheat plant response rating: 8 g ai/ha
# In short: as §1
# [6] = system: goosegrass (Eleusine indica); settings: for Goosegrass plant response rating: 8 g ai/ha
# In short: as §1
# [7] = system: velvetleaf (Abutilon theophrasti); settings: for Velvetleaf plant response rating: 8 g ai/ha
# In short: as §1
# [8] = system: cocklebur (Xanthium strumarium); settings: for Cocklebur plant response rating: 8 g ai/ha
# In short: as §1
# [9] = system: lambsquarters (Chenopodium album); settings: for Lambsquarters plant response rating: 8 g ai/ha
# In short: as §1
# [10] = system: corn (Zea mays); settings: for Corn plant response rating: 8 g ai/ha
# In short: as §1
# [11] = system: bermudagrass (Cynodon dactylon); settings: for Bermudagrass plant response rating: 8 g ai/ha
# In short: as §1
# [12] = system: woolly cupgrass (Eriochloa villosa); settings: for Cupgrass, Woolly plant response rating: 8 g ai/ha
# In short: as §1
# [13] = system: kochia (Kochia scoparia); settings: for Plant response rating, Kochia: Postemergence
# In short: as §1
# [14] = system: yellow nutsedge (Cyperus esculentus); settings: for Nutsedge, Yellow plant response rating: 8 g ai/ha
# In short: as §1
# [15] = Postemergence, 16 g ai/ha, scale 0 to 100
# [16] = Postemergence, 31 g ai/ha, scale 0 to 100, 0 no effect, 100 complete control
# [17] = Postemergence, 62 g ai/ha, scale 0 to 100, 0 no effect, 100 complete control
# [18] = Preemergence, 16 g ai/ha, scale 0 to 100 (0 no effect, 100 complete control)
# [19] = Preemergence, 31 g ai/ha, 0 to 100 scale, 0 no effect, 100 complete control
# [20] = Preemergence, 62 g ai/ha, scale 0 to 100
smiles,measurement,setting,value
Cc1cc(-c2ccc(Cl)cc2)nn1-c1c(OS(C)(=O)=O)cnn(C)c1=O [Compound 36],"Foxtail, Giant plant response rating","[1]; postemergence, 0-100 scale",0
same,"Plant response rating, Foxtail, Giant",[1]; [15],35
same,"Plant response rating, Foxtail, Giant",[1]; [16],60
same,"Plant response rating, Foxtail, Giant",[1]; [17],60
same,"Plant response rating, Foxtail, Giant",[1]; [18],100
same,"Plant response rating, Foxtail, Giant",[1]; [19],100
same,"Plant response rating, Foxtail, Giant",[1]; [20],100
same,"Foxtail, Giant plant response rating","[1]; Preemergence, scale 0 to 100",100
same,"Foxtail, Green plant response rating","[2]; postemergence, 0-100 scale",0
same,"Plant response rating, Foxtail, Green",[2]; [15],50
same,"Plant response rating, Foxtail, Green",[2]; [16],60
same,"Plant response rating, Foxtail, Green",[2]; [17],70
same,"Plant response rating, Foxtail, Green",[2]; [18],100
same,"Plant response rating, Foxtail, Green",[2]; [19],100
same,"Plant response rating, Foxtail, Green",[2]; [20],100
same,"Foxtail, Green plant response rating","[2]; Preemergence, scale 0 to 100",50
same,Soybean plant response rating,"[3]; postemergence, 0-100 scale",0
same,"Plant response rating, Soybean",[3]; [15],0
same,"Plant response rating, Soybean",[3]; [17],0
same,"Plant response rating, Soybean",[3]; [18],0
same,"Plant response rating, Soybean",[3]; [19],0
same,"Plant response rating, Soybean",[3]; [20],0
same,Soybean plant response rating,"[3]; Preemergence, scale 0 to 100",0
same,"Plant response rating, Russian Thistle","[4]; 16 g ai/ha, scale 0 to 100 (0 no effect, 100 complete control)",0
same,"Plant response rating, Russian Thistle","[4]; 62 g ai/ha, scale 0 to 100",80
same,Russian Thistle plant response rating,"[4]; 8 g ai/ha, scale 0 to 100",0
same,Wheat plant response rating,"[5]; postemergence, 0-100 scale",0
same,"Plant response rating, Wheat",[5]; [15],5
same,"Plant response rating, Wheat",[5]; [17],85
same,"Plant response rating, Wheat",[5]; [18],0
same,"Plant response rating, Wheat",[5]; [19],5
same,"Plant response rating, Wheat",[5]; [20],60
same,Wheat plant response rating,"[5]; Preemergence, scale 0 to 100",0
same,Goosegrass plant response rating,"[6]; postemergence, 0-100 scale",0
same,"Plant response rating, Goosegrass",[6]; [15],100
same,"Plant response rating, Goosegrass",[6]; [16],100
same,"Plant response rating, Goosegrass",[6]; [17],100
same,"Plant response rating, Goosegrass",[6]; [18],100
same,"Plant response rating, Goosegrass",[6]; [19],100
same,"Plant response rating, Goosegrass",[6]; [20],100
same,Goosegrass plant response rating,"[6]; Preemergence, scale 0 to 100",80
same,Velvetleaf plant response rating,"[7]; postemergence, 0-100 scale",0
same,"Plant response rating, Velvetleaf",[7]; [15],0
same,"Plant response rating, Velvetleaf",[7]; [17],0
same,"Plant response rating, Velvetleaf",[7]; [18],0
same,"Plant response rating, Velvetleaf",[7]; [19],0
same,"Plant response rating, Velvetleaf",[7]; [20],0
same,Velvetleaf plant response rating,"[7]; Preemergence, scale 0 to 100",0
same,Cocklebur plant response rating,"[8]; postemergence, 0-100 scale",0
same,"Plant response rating, Cocklebur",[8]; [15],0
same,"Plant response rating, Cocklebur",[8]; [16],0
same,"Plant response rating, Cocklebur",[8]; [17],0
same,"Plant response rating, Cocklebur",[8]; [18],0
same,"Plant response rating, Cocklebur",[8]; [19],0
same,"Plant response rating, Cocklebur",[8]; [20],0
same,Cocklebur plant response rating,"[8]; Preemergence, scale 0 to 100",0
same,Lambsquarters plant response rating,"[9]; postemergence, 0-100 scale",0
same,"Plant response rating, Lambsquarters",[9]; [15],0
same,"Plant response rating, Lambsquarters",[9]; [16],0
same,"Plant response rating, Lambsquarters",[9]; [17],0
same,"Plant response rating, Lambsquarters",[9]; [18],0
same,"Plant response rating, Lambsquarters",[9]; [19],0
same,"Plant response rating, Lambsquarters",[9]; [20],0
same,Lambsquarters plant response rating,"[9]; Preemergence, scale 0 to 100",0
same,Corn plant response rating,"[10]; postemergence, 0-100 scale",10
same,"Plant response rating, Corn",[10]; [15],15
same,"Plant response rating, Corn",[10]; [16],15
same,"Plant response rating, Corn",[10]; [17],40
same,"Plant response rating, Corn",[10]; [18],55
same,"Plant response rating, Corn",[10]; [19],70
same,"Plant response rating, Corn",[10]; [20],95
same,Corn plant response rating,"[10]; Preemergence, scale 0 to 100",40
same,Bermudagrass plant response rating,"[11]; postemergence, 0-100 scale",40
same,"Plant response rating, Bermudagrass",[11]; [15],80
same,"Plant response rating, Bermudagrass",[11]; [16],100
same,"Plant response rating, Bermudagrass",[11]; [17],100
same,Bermudagrass plant response rating,"[11]; Preemergence, scale 0 to 100 (0 no effect, 100 complete control)",98
same,"Plant response rating, Bermudagrass",[11]; [18],100
same,"Plant response rating, Bermudagrass",[11]; [19],100
same,"Plant response rating, Bermudagrass",[11]; [20],100
same,"Cupgrass, Woolly plant response rating","[12]; postemergence, 0-100 scale",85
same,"Plant response rating, Cupgrass, Woolly",[12]; [15],90
same,"Plant response rating, Cupgrass, Woolly",[12]; [16],95
same,"Plant response rating, Cupgrass, Woolly",[12]; [17],95
same,"Plant response rating, Cupgrass, Woolly",[12]; [18],85
same,"Plant response rating, Cupgrass, Woolly",[12]; [19],98
same,"Plant response rating, Cupgrass, Woolly",[12]; [20],100
same,"Cupgrass, Woolly plant response rating","[12]; Preemergence, scale 0 to 100",85
same,Kochia plant response rating,"[13]; 8 g ai/ha, postemergence, 0-100 scale",0
same,"Plant response rating, Kochia","[13]; 16 g ai/ha, scale 0 to 100",0
same,"Plant response rating, Kochia","[13]; 31 g ai/ha, scale 0 to 100, 0 no effect, 100 complete control",0
same,"Plant response rating, Kochia","[13]; 62 g ai/ha, scale 0 to 100, 0 no effect, 100 complete control",0
same,"Nutsedge, Yellow plant response rating","[14]; postemergence, 0-100 scale",0
same,"Plant response rating, Nutsedge, Yellow",[14]; [15],0
same,"Plant response rating, Nutsedge, Yellow",[14]; [16],0
same,"Plant response rating, Nutsedge, Yellow",[14]; [17],0
same,"Plant response rating, Nutsedge, Yellow",[14]; [18],0
same,"Plant response rating, Nutsedge, Yellow",[14]; [19],0
same,"Plant response rating, Nutsedge, Yellow",[14]; [20],0
same,"Nutsedge, Yellow plant response rating","[14]; Preemergence, scale 0 to 100",0
